Laboratory results published in article PMC10373199 (ACS Omega, 2023).
Converted amounts (≈) assume the structure as drawn. Like-named read-outs stand apart in the source and are kept apart here. Marks after values point to notes of the source that are not given here.

How the values were obtained:
[1] = test system: Ishikawa cells; test: AlkP activity in Ishikawa cells; assay type: cell-based, human; conditions: 72 h, DMSO set to 1
[2] = test system: ovariectomized rats; test: Uterotrophic assay; assay type: in vivo, rat; conditions: 10 μg/kg BW/day s.c. for 3 days
[3] = test system: EBOV; assay type: cell-based, Ebola virus; set-up: unit not given beside the values
[4] = in vitro; conditions: human
[5] = test system: 60 NCI tumor cell lines; test: NCI one-dose screen, mean over 60 tumor cell lines; assay type: cell-based; conditions: Homo sapiens, read-out: mean growth inhibition (%)
[6] = test system: MCF-7; test: NCI one-dose screen, MCF-7; assay type: cell-based; conditions: Homo sapiens, MCF7, read-out: growth inhibition on MCF-7 (%), 10 μM
[7] = test system: 60 different cell lines; test: NCI five-dose screen, mean/median over 60 cell lines; assay type: cell-based; conditions: Homo sapiens
[8] = test system: CCRF-CEM; test: NCI five-dose screen, CCRF-CEM; assay type: cell-based; conditions: Homo sapiens
[9] = test system: HL-60 (TB); test: NCI five-dose screen, HL-60; assay type: cell-based; conditions: Homo sapiens
[10] = test system: K-562; test: NCI five-dose screen, K-562; assay type: cell-based; conditions: Homo sapiens, K562
[11] = test system: MOLT-4; test: NCI five-dose screen, MOLT-4; assay type: cell-based; conditions: Homo sapiens
[12] = test system: RPMI-8226; test: NCI five-dose screen, RPMI-8226; assay type: cell-based; conditions: Homo sapiens
[13] = test system: SR; test: NCI five-dose screen, SR; assay type: cell-based; conditions: Homo sapiens
[14] = test system: A549/ATCC; test: NCI five-dose screen, A549/ATCC; assay type: cell-based; conditions: Homo sapiens
[15] = test system: EKVX; test: NCI five-dose screen, EKVX; assay type: cell-based; conditions: Homo sapiens
[16] = test system: HOP-62; test: NCI five-dose screen, HOP-62; assay type: cell-based; conditions: Homo sapiens
[17] = test system: HOP-92; test: NCI five-dose screen, HOP-92; assay type: cell-based; conditions: Homo sapiens
[18] = test system: NCI-H226; test: NCI five-dose screen, NCI-H226; assay type: cell-based; conditions: Homo sapiens
[19] = test system: NCI-H23; test: NCI five-dose screen, NCI-H23; assay type: cell-based; conditions: Homo sapiens
[20] = test system: NCI-H322M; test: NCI five-dose screen, NCI-H322M; assay type: cell-based; conditions: Homo sapiens
[21] = test system: NCI-H460; test: NCI five-dose screen, NCI-H460; assay type: cell-based; conditions: Homo sapiens
[22] = test system: NCI-H522; test: NCI five-dose screen, NCI-H522; assay type: cell-based; conditions: Homo sapiens
[23] = test system: COLO 205; test: NCI five-dose screen, COLO 205; assay type: cell-based; conditions: Homo sapiens
[24] = test system: HCC-2998; test: NCI five-dose screen, HCC-2998; assay type: cell-based; conditions: Homo sapiens
[25] = test system: HCT-116; test: NCI five-dose screen, HCT-116; assay type: cell-based; conditions: Homo sapiens
[26] = test system: HCT-15; test: NCI five-dose screen, HCT-15; assay type: cell-based; conditions: Homo sapiens
[27] = test system: HT29; test: NCI five-dose screen, HT29; assay type: cell-based; conditions: Homo sapiens, HT-29
[28] = test system: KM12; test: NCI five-dose screen, KM12; assay type: cell-based; conditions: Homo sapiens
[29] = test system: SW-620; test: NCI five-dose screen, SW-620; assay type: cell-based; conditions: Homo sapiens
[30] = test system: SF-268; test: NCI five-dose screen, SF-268; assay type: cell-based; conditions: Homo sapiens
[31] = test system: SF-295; test: NCI five-dose screen, SF-295; assay type: cell-based; conditions: Homo sapiens
[32] = test system: SF-539; test: NCI five-dose screen, SF-539; assay type: cell-based; conditions: Homo sapiens
[33] = test system: SNB-19; test: NCI five-dose screen, SNB-19; assay type: cell-based; conditions: Homo sapiens
[34] = test system: SNB-75; test: NCI five-dose screen, SNB-75; assay type: cell-based; conditions: Homo sapiens
[35] = test system: U251; test: NCI five-dose screen, U251; assay type: cell-based; conditions: Homo sapiens, U-251
[36] = test system: LOX IMVI; test: NCI five-dose screen, LOX IMVI; assay type: cell-based; conditions: Homo sapiens
[37] = test system: MALME-3M; test: NCI five-dose screen, MALME-3M; assay type: cell-based; conditions: Homo sapiens
[38] = test system: M14; test: NCI five-dose screen, M14; assay type: cell-based; conditions: Homo sapiens
[39] = test system: MDA-MB-435; test: NCI five-dose screen, MDA-MB-435; assay type: cell-based; conditions: Homo sapiens
[40] = test system: SK-MEL-2; test: NCI five-dose screen, SK-MEL-2; assay type: cell-based; conditions: Homo sapiens
[41] = test system: SK-MEL-28; test: NCI five-dose screen, SK-MEL-28; assay type: cell-based; conditions: Homo sapiens
[42] = test system: SK-MEL-5; test: NCI five-dose screen, SK-MEL-5; assay type: cell-based; conditions: Homo sapiens
[43] = test system: UACC-257; test: NCI five-dose screen, UACC-257; assay type: cell-based; conditions: Homo sapiens
[44] = test system: UACC-62; test: NCI five-dose screen, UACC-62; assay type: cell-based; conditions: Homo sapiens
[45] = test system: IGROV1; test: NCI five-dose screen, IGROV1; assay type: cell-based; conditions: Homo sapiens, IGROV-1
[46] = test system: OVCAR-3; test: NCI five-dose screen, OVCAR-3; assay type: cell-based; conditions: Homo sapiens
[47] = test system: OVCAR-4; test: NCI five-dose screen, OVCAR-4; assay type: cell-based; conditions: Homo sapiens
[48] = test system: OVCAR-5; test: NCI five-dose screen, OVCAR-5; assay type: cell-based; conditions: Homo sapiens
[49] = test system: OVCAR-8; test: NCI five-dose screen, OVCAR-8; assay type: cell-based; conditions: Homo sapiens
[50] = test system: NCI/ADR-RES; test: NCI five-dose screen, NCI/ADR-RES; assay type: cell-based; conditions: Homo sapiens
[51] = test system: SK-OV-3; test: NCI five-dose screen, SK-OV-3; assay type: cell-based; conditions: Homo sapiens
[52] = test system: 786–0; test: NCI five-dose screen, 786–0; assay type: cell-based; conditions: Homo sapiens
[53] = test system: A498; test: NCI five-dose screen, A498; assay type: cell-based; conditions: Homo sapiens
[54] = test system: ACHN; test: NCI five-dose screen, ACHN; assay type: cell-based; conditions: Homo sapiens
[55] = test system: CAKI-1; test: NCI five-dose screen, CAKI-1; assay type: cell-based; conditions: Homo sapiens
[56] = test system: RXF 393; test: NCI five-dose screen, RXF 393; assay type: cell-based; conditions: Homo sapiens
[57] = test system: SN12C; test: NCI five-dose screen, SN12C; assay type: cell-based; conditions: Homo sapiens
[58] = test system: TK-10; test: NCI five-dose screen, TK-10; assay type: cell-based; conditions: Homo sapiens
[59] = test system: UO-31; test: NCI five-dose screen, UO-31; assay type: cell-based; conditions: Homo sapiens
[60] = test system: PC-3; test: NCI five-dose screen, PC-3; assay type: cell-based; conditions: Homo sapiens
[61] = test system: DU-145; test: NCI five-dose screen, DU-145; assay type: cell-based; conditions: Homo sapiens
[62] = test system: MCF7; test: NCI five-dose screen, MCF7; assay type: cell-based; conditions: Homo sapiens
[63] = test system: MDA-MB-231/ATCC; test: NCI five-dose screen, MDA-MB-231/ATCC; assay type: cell-based; conditions: Homo sapiens
[64] = test system: HS 578T; test: NCI five-dose screen, HS 578T; assay type: cell-based; conditions: Homo sapiens
[65] = test system: BT-549; test: NCI five-dose screen, BT-549; assay type: cell-based; conditions: Homo sapiens
[66] = test system: T-47D; test: NCI five-dose screen, T-47D; assay type: cell-based; conditions: Homo sapiens, T47D
[67] = test system: MDA-MB-468; test: NCI five-dose screen, MDA-MB-468; assay type: cell-based; conditions: Homo sapiens
[68] = test system: influenza A virus H1N1; test: Influenza A virus H1N1 screening, visual CPE inhibition; assay type: cell-based, influenza A virus H1N1 (California/07/2009)

SMILES: C[C@]12CC[C@@H]3c4ccc(O)cc4CC[C@H]3[C@@H]1CC[C@@H]2O [Compound E2, 17β-estradiol]
- AlkP activity ([1]; 10 nM): 6.86 ± 0.69 ^a
- relative UWW, mean ± SD [2]: 3.85 ± 0.71 g/kg BW

SMILES: NC(=O)c1nc(F)c[nH]c1=O [favipiravir]
- SI90 [3]: >14
- CC50 [4]: > 1000 µg/mL

SMILES: CC/C(=C(\c1ccc(O)cc1)c1ccc(OCCN(C)C)cc1)c1ccccc1 [Compound 4-OH-TAM, 4-hydroxytamoxifen]
- AlkP activity ([1]; 1 μM): 1.73 ± 0.46
- AlkP activity ([1]; 10 μM): 0.60 ± 0.20

SMILES: CC/C(=C(\c1ccccc1)c1ccc(OCCN(C)C)cc1)c1ccccc1 [TAM, Tamoxifen]
- inhibition at 10 µM [5]: ≥ 100%
- inhibition at 10 µM [6]: ≥ 100%
- AlkP activity ([1]; 1 μM): 1.60 ± 0.55
- AlkP activity ([1]; 10 μM): 1.02 ± 0.37
- GI50 ([7]; read-out: GI50, mean): 4.41 µM
- GI50 ([7]; read-out: GI50, median): 3.98 µM
- GI50 [8]: 3.16 µM
- GI50 [9]: 2.51 µM
- GI50 [10]: 1.99 µM
- GI50 [11]: 2.51 µM
- GI50 [12]: 2.51 µM
- GI50 [13]: 1.26 µM
- GI50 [14]: 3.98 µM
- GI50 [15]: 6.31 µM
- GI50 [16]: 10 µM
- GI50 [17]: 2.52 µM
- GI50 [18]: 10 µM
- GI50 [19]: 5.01 µM
- GI50 [20]: 7.94 µM
- GI50 [21]: 3.16 µM
- GI50 [22]: 6.31 µM
- GI50 [23]: 2.15 µM
- GI50 [24]: 3.16 µM
- GI50 [25]: 3.98 µM
- GI50 [26]: 3.16 µM
- GI50 [27]: 2.51 µM
- GI50 [28]: 3.16 µM
- GI50 [29]: 3.16 µM
- GI50 [30]: 6.31 µM
- GI50 [31]: 1.96 µM
- GI50 [32]: 5.01 µM
- GI50 [33]: 6.31 µM
- GI50 [34]: 5.01 µM
- GI50 [35]: 3.16 µM
- GI50 [36]: 2.51 µM
- GI50 [37]: 3.16 µM
- GI50 [38]: 2.51 µM
- GI50 [39]: 3.16 µM
- GI50 [40]: 5.01 µM
- GI50 [41]: 3.98 µM
- GI50 [42]: 2.51 µM
- GI50 [43]: 3.16 µM
- GI50 [44]: 6.31 µM
- GI50 [45]: 5.01 µM
- GI50 [46]: 3.98 µM
- GI50 [47]: 6.31 µM
- GI50 [48]: 6.31 µM
- GI50 [49]: 7.94 µM
- GI50 [50]: 5.01 µM
- GI50 [51]: 10 µM
- GI50 [52]: 3.98 µM
- GI50 [53]: 6.31 µM
- GI50 [54]: 6.31 µM
- GI50 [55]: 3.98 µM
- GI50 [56]: 2.51 µM
- GI50 [57]: 3.98 µM
- GI50 [58]: 3.98 µM
- GI50 [59]: 6.31 µM
- GI50 [60]: 3.16 µM
- GI50 [61]: 6.31 µM
- GI50 [62]: 1.58 µM
- GI50 [63]: 6.31 µM
- GI50 [64]: 3.98 µM
- GI50 [65]: 6.31 µM
- GI50 [66]: 2.51 µM
- GI50 [67]: 1.96 µM

SMILES: NC(=O)c1ncn([C@@H]2O[C@H](CO)[C@@H](O)[C@H]2O)n1 [ribavirin]
- EC50 ([68]; Influenza A virus, H1N1, MDCK, read-out: EC50, visual CPE): 1 µg/mL (≈ 4.09 µM)
- SI50 (CC50/EC50) ([68]; visual CPE): >320 µg/mL
